Reference: PubChem BioAssay (NCI)
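Dose response: 5 concentrations. Exposure: 48 h. Format: 96-well plates. Endpoint: linear interpolation; highest concentration if not reached. GI50 marks 50% less growth. TGI denotes the concentration required for complete inhibition of growth.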

How the values were obtained:
Test in all cases: NCI tumour cell line growth inhibition, 48 h
SF-539 CNS = tested on: SF-539 CNS
NCI/ADR-RES ovarian = tested on: NCI/ADR-RES ovarian
A549 NSCLC = tested on: A549 NSCLC
HOP-62 NSCLC = tested on: HOP-62 NSCLC
HCT-116 colon = tested on: HCT-116 colon
SK-OV-3 ovarian = tested on: SK-OV-3 ovarian
HS 578T breast = tested on: HS 578T breast
DU-145 prostate = tested on: DU-145 prostate
NCI-H522 lung = tested on: NCI-H522 lung
UACC-257 melanoma = tested on: UACC-257 melanoma
CCRF-CEM leukemia = tested on: CCRF-CEM leukemia
SN12C renal = tested on: SN12C renal
HCT-15 colon = tested on: HCT-15 colon
MCF7 breast = tested on: MCF7 breast
HCC-2998 colon = tested on: HCC-2998 colon
786-0 renal = tested on: 786-0 renal
OVCAR-4 ovarian = tested on: OVCAR-4 ovarian
SW-620 colon = tested on: SW-620 colon
A498 renal = tested on: A498 renal
BT-549 breast = tested on: BT-549 breast
SK-MEL-5 melanoma = tested on: SK-MEL-5 melanoma
SNB-19 CNS = tested on: SNB-19 CNS
ACHN renal = tested on: ACHN renal
UACC-62 melanoma = tested on: UACC-62 melanoma
NCI-H23 lung = tested on: NCI-H23 lung
KM12 colon = tested on: KM12 colon
SF-268 CNS = tested on: SF-268 CNS
NCI-H460 lung = tested on: NCI-H460 lung
M14 melanoma = tested on: M14 melanoma
TK-10 renal = tested on: TK-10 renal
RPMI-8226 leukemia = tested on: RPMI-8226 leukemia
T-47D breast = tested on: T-47D breast
U251 CNS = tested on: U251 CNS
OVCAR-8 ovarian = tested on: OVCAR-8 ovarian
HOP-92 NSCLC = tested on: HOP-92 NSCLC
OVCAR-5 ovarian = tested on: OVCAR-5 ovarian
UO-31 renal = tested on: UO-31 renal
HT29 colon = tested on: HT29 colon
SK-MEL-2 melanoma = tested on: SK-MEL-2 melanoma
MDA-MB-231 breast = tested on: MDA-MB-231 breast
COLO 205 colon = tested on: COLO 205 colon
RXF 393 renal = tested on: RXF 393 renal
MOLT-4 leukemia = tested on: MOLT-4 leukemia
CAKI-1 renal = tested on: CAKI-1 renal
MALME-3M melanoma = tested on: MALME-3M melanoma
SF-295 CNS = tested on: SF-295 CNS
IGROV1 ovarian = tested on: IGROV1 ovarian
SR leukemia = tested on: SR leukemia
OVCAR-3 ovarian = tested on: OVCAR-3 ovarian
NCI-H226 lung = tested on: NCI-H226 lung
EKVX NSCLC = tested on: EKVX NSCLC
LOX IMVI melanoma = tested on: LOX IMVI melanoma
MDA-MB-435 = tested on: MDA-MB-435
HL-60(TB) leukemia = tested on: HL-60(TB) leukemia

Compound: Cc1cc(C)c(S(=O)(=O)N2CCN(c3cc4c(cc3F)c(=O)c(C(=O)O)cn4C3CC3)CC2)c(C)c1
- GI50 (SF-539 CNS): 3140 nM
- TGI (SF-539 CNS): > 100000 nM
- GI50 (NCI/ADR-RES ovarian): 3290 nM
- TGI (NCI/ADR-RES ovarian): > 100000 nM
- GI50 (A549 NSCLC): 2230 nM
- TGI (A549 NSCLC): > 100000 nM
- GI50 (HOP-62 NSCLC): 3650 nM
- TGI (HOP-62 NSCLC): > 100000 nM
- GI50 (HCT-116 colon): 2980 nM
- TGI (HCT-116 colon): > 100000 nM
- GI50 (SK-OV-3 ovarian): 3020 nM
- TGI (SK-OV-3 ovarian): > 100000 nM
- GI50 (HS 578T breast): 2400 nM
- TGI (HS 578T breast): 7580 nM
- GI50 (DU-145 prostate): 3400 nM
- TGI (DU-145 prostate): > 100000 nM
- GI50 (NCI-H522 lung): 2800 nM
- TGI (NCI-H522 lung): > 100000 nM
- GI50 (UACC-257 melanoma): > 100000 nM
- TGI (UACC-257 melanoma): > 100000 nM
- GI50 (CCRF-CEM leukemia): 2800 nM
- TGI (CCRF-CEM leukemia): > 100000 nM
- GI50 (SN12C renal): 2610 nM
- TGI (SN12C renal): > 100000 nM
- GI50 (HCT-15 colon): 2550 nM
- TGI (HCT-15 colon): > 100000 nM
- GI50 (MCF7 breast): 2590 nM
- TGI (MCF7 breast): > 100000 nM
- GI50 (HCC-2998 colon): 5370 nM
- TGI (HCC-2998 colon): > 100000 nM
- GI50 (786-0 renal): 4080 nM
- TGI (786-0 renal): > 100000 nM
- GI50 (OVCAR-4 ovarian): 2370 nM
- TGI (OVCAR-4 ovarian): > 100000 nM
- GI50 (SW-620 colon): 3400 nM
- TGI (SW-620 colon): > 100000 nM
- GI50 (A498 renal): 2370 nM
- TGI (A498 renal): > 100000 nM
- GI50 (BT-549 breast): 3340 nM
- TGI (BT-549 breast): > 100000 nM
- GI50 (SK-MEL-5 melanoma): 3030 nM
- TGI (SK-MEL-5 melanoma): > 100000 nM
- GI50 (SNB-19 CNS): 2560 nM
- TGI (SNB-19 CNS): > 100000 nM
- GI50 (ACHN renal): 2460 nM
- TGI (ACHN renal): > 100000 nM
- GI50 (UACC-62 melanoma): 2430 nM
- TGI (UACC-62 melanoma): > 100000 nM
- GI50 (NCI-H23 lung): 3410 nM
- TGI (NCI-H23 lung): > 100000 nM
- GI50 (KM12 colon): 3380 nM
- TGI (KM12 colon): > 100000 nM
- GI50 (SF-268 CNS): 3960 nM
- TGI (SF-268 CNS): > 100000 nM
- GI50 (NCI-H460 lung): 3040 nM
- TGI (NCI-H460 lung): > 100000 nM
- GI50 (M14 melanoma): 4690 nM
- TGI (M14 melanoma): > 100000 nM
- GI50 (TK-10 renal): 4570 nM
- TGI (TK-10 renal): > 100000 nM
- GI50 (RPMI-8226 leukemia): 2340 nM
- TGI (RPMI-8226 leukemia): 6830 nM
- GI50 (T-47D breast): 4810 nM
- TGI (T-47D breast): > 100000 nM
- GI50 (U251 CNS): 2890 nM
- TGI (U251 CNS): > 100000 nM
- GI50 (OVCAR-8 ovarian): 2870 nM
- TGI (OVCAR-8 ovarian): > 100000 nM

Compound: COc1cc2c3c(n(CCCN(C)C)c(=O)c2cc1OC)-c1cc2c(cc1C3=O)OCO2
- GI50 (SF-539 CNS): 162 nM
- TGI (SF-539 CNS): 1310 nM
- GI50 (NCI/ADR-RES ovarian): 67.8 nM
- TGI (NCI/ADR-RES ovarian): 564 nM
- GI50 (HOP-92 NSCLC): 1840 nM
- TGI (HOP-92 NSCLC): 10600 nM
- GI50 (A549 NSCLC): 515 nM
- TGI (A549 NSCLC): 2290 nM
- GI50 (HOP-62 NSCLC): 18.2 nM
- TGI (HOP-62 NSCLC): 421 nM
- GI50 (HCT-116 colon): 220 nM
- TGI (HCT-116 colon): 1870 nM
- GI50 (OVCAR-5 ovarian): 1200 nM
- TGI (OVCAR-5 ovarian): 2440 nM
- GI50 (SK-OV-3 ovarian): 1290 nM
- TGI (SK-OV-3 ovarian): 4330 nM
- GI50 (UO-31 renal): 926 nM
- TGI (UO-31 renal): 2260 nM
- GI50 (HS 578T breast): 2300 nM
- TGI (HS 578T breast): 5930 nM
- GI50 (DU-145 prostate): 144 nM
- TGI (DU-145 prostate): 1690 nM
- GI50 (HT29 colon): 70.2 nM
- TGI (HT29 colon): 1780 nM
- GI50 (NCI-H522 lung): 805 nM
- TGI (NCI-H522 lung): 4740 nM
- GI50 (SK-MEL-2 melanoma): 3450 nM
- TGI (SK-MEL-2 melanoma): 13100 nM
- GI50 (MDA-MB-231 breast): 972 nM
- TGI (MDA-MB-231 breast): 2760 nM
- GI50 (UACC-257 melanoma): 1180 nM
- TGI (UACC-257 melanoma): 2840 nM
- GI50 (CCRF-CEM leukemia): < 10 nM
- TGI (CCRF-CEM leukemia): 403 nM
- GI50 (COLO 205 colon): 944 nM
- TGI (COLO 205 colon): 11700 nM
- GI50 (SN12C renal): 935 nM
- TGI (SN12C renal): 2750 nM
- GI50 (RXF 393 renal): 2480 nM
- TGI (RXF 393 renal): > 100000 nM
- GI50 (HCT-15 colon): 331 nM
- GI50 (MOLT-4 leukemia): < 10 nM
- TGI (MOLT-4 leukemia): 3400 nM
- GI50 (HCC-2998 colon): < 35.7 nM
- GI50 (CAKI-1 renal): 368 nM
- TGI (CAKI-1 renal): 1770 nM
- GI50 (786-0 renal): 79.9 nM
- TGI (786-0 renal): 583 nM
- GI50 (OVCAR-4 ovarian): 467 nM
- TGI (OVCAR-4 ovarian): 2880 nM
- GI50 (MALME-3M melanoma): 163 nM
- TGI (MALME-3M melanoma): 1980 nM
- TGI (SW-620 colon): 1900 nM
- GI50 (A498 renal): 9920 nM
- TGI (A498 renal): 33400 nM
- GI50 (SF-295 CNS): 38.7 nM
- TGI (SF-295 CNS): 1650 nM
- GI50 (IGROV1 ovarian): 1040 nM
- TGI (IGROV1 ovarian): 2380 nM
- GI50 (BT-549 breast): 1400 nM
- TGI (BT-549 breast): 3440 nM
- GI50 (SK-MEL-5 melanoma): 436 nM
- TGI (SK-MEL-5 melanoma): 2090 nM
- GI50 (SR leukemia): < 10 nM
- TGI (SR leukemia): 112 nM
- GI50 (SNB-19 CNS): 554 nM
- TGI (SNB-19 CNS): 6120 nM
- GI50 (OVCAR-3 ovarian): 1330 nM
- TGI (OVCAR-3 ovarian): 2910 nM
- GI50 (ACHN renal): 146 nM
- TGI (ACHN renal): 1140 nM
- GI50 (NCI-H23 lung): 165 nM
- TGI (NCI-H23 lung): 1590 nM
- GI50 (KM12 colon): 678 nM
- TGI (KM12 colon): 2680 nM
- GI50 (NCI-H226 lung): 1400 nM
- TGI (NCI-H226 lung): 5880 nM
- GI50 (SF-268 CNS): 1110 nM
- TGI (SF-268 CNS): 5590 nM
- GI50 (NCI-H460 lung): 281 nM
- TGI (NCI-H460 lung): 3370 nM
- GI50 (EKVX NSCLC): 1460 nM
- TGI (EKVX NSCLC): 3390 nM
- GI50 (M14 melanoma): 422 nM
- TGI (M14 melanoma): 1930 nM
- GI50 (TK-10 renal): 1480 nM
- TGI (TK-10 renal): 3260 nM
- GI50 (LOX IMVI melanoma): 66.2 nM
- TGI (LOX IMVI melanoma): 1580 nM
- GI50 (RPMI-8226 leukemia): 182 nM
- TGI (RPMI-8226 leukemia): 1190 nM
- GI50 (MDA-MB-435): 650 nM
- TGI (MDA-MB-435): 2130 nM
- GI50 (HL-60(TB) leukemia): 1010 nM
- TGI (HL-60(TB) leukemia): 3330 nM
- GI50 (T-47D breast): 496 nM
- TGI (T-47D breast): 3940 nM
- GI50 (U251 CNS): 127 nM
- TGI (U251 CNS): 4000 nM
- GI50 (OVCAR-8 ovarian): 432 nM
- TGI (OVCAR-8 ovarian): 3040 nM
